# Laboratory results taken from patent US20240342111A1, “ISOMER-SPECIFIC NEUROPROTECTIVE EFFECT OF NATURAL RESERVATROL” (priority 2021, published 2024).
# Legend:
# Rat cortical neurons [1] = experiment: MPP+ toxicity (mitochondrial inhibition), cell viability; type: cell-based
# PARP1 [2] = experiment: Immunoblot for auto-PARylation of PARP1; type: cell-based, rat; details: 15 minutes
# Rat cortical neurons [3] = experiment: trans-RSV in combination with cis-RSV, viability by MTT assay; type: cell-based; details: cis-RSV 10-50 μM in combination with trans-RSV, 48 hours
# Method: Cell viability was assessed and quantified using MTT assay.
# Rat cortical neurons (DIV 10-11) were exposed to different treatments after seeding 20,000 cells/well in 96-well plates. Cell viability was then assessed at 48 hours after the initial exposure to NMDA. 3-[4,5-dimethylthiazole-2-yl]-2,5-diphenyltetrazolium bromide (MTT) assays were used to assess change in cell viability. Cultured rat cortical neurons were incubated with MTT (0.5 mg/mL). In the MTT assay, after 2 h incubation, the insoluble purple product formazan resulting from the reduction of MTT by NAD(P)H-dependent oxidoreductases present in cells with viable mitochondria was solubilized in dimethyl sulfoxide at room temperature, under agitation, and protected from light. The percentage of MTT reduced as measured by the difference between the absorbances at 570 nm read in a spectrophotometer (Spectramax 190R Molecular Devices, UK). The percentage of reduction of MTT was calculated comparing the difference of the absorbance at 570 of each sample. Results are presented as percentage of control (wells incubated with the vehicle).
# XRCC1 = experiment: Immunoblot for DNA repair protein XRCC1; type: cell-based, rat; details: 5-50 μM, 4 hours
# Source text: (§1) Ac-K56-H3 is a marker of genomic stability, see Driscoll, R., Hudson, A. & Jackson, S. P. Yeast Rtt109 promotes genome stability by acetylating histone H3 on lysine 56. Science 315, 649-652, doi:10.1126/science.1135862 (2007), and DNA damage, see Tjeertes, J. V., Miller, K. M. & Jackson, S. P. Screen for DNA-damage-responsive histone modifications identifies H3K9Ac and H3K56Ac in human cells. EMBO J 28, 1878-1889, doi:10.1038/emboj.2009.119 (2009), and inhibition of PARP1 causes the downregulation of RAD51, see Hegan, D. C. et al. Inhibition of poly(ADP-ribose) polymerase down-regulates BRCA1 and RAD51 in a pathway mediated by E2F4 and p130. […] The western blot images of the protein levels of HPF1 was quantified using ImageJ.
# (§2) Cultured neurons (DIV 9-10) were washed once with cold 1×PBS and lysed in cell lysis buffer (20 mM Tris-HCl (pH 7.5), 150 mM NaCl, 1 mM Na2EDTA, 1 mM EGTA, 1% Triton, 2.5 mM sodium pyrophosphate, 1 mM beta-glycerophosphate, 1 mM Na3VO4, 1 μg/ml leupeptin supplemented with protease inhibitor). […] Lysates were quantified using Bio-Rad Protein Assay, and an equal amount of protein was loaded onto a 4 to 12% gradient gel (NuPAGE-Invitrogen). […] Quantification for the western blots was done using ImageJ (Version 1.53c).
# Ligase IV = experiment: Immunoblot for DNA repair protein Ligase IV; type: cell-based, rat; details: 5-50 μM, 4 hours
# Source text: as §1, §2
# GSK3β = experiment: Immunoblot for inhibitory GSK3β phosphorylation; type: cell-based, rat; details: 16 hours
# TyrRS [4] = molecular target: T1, TyrRS (Rattus norvegicus, UniProt Q4KM49); experiment: Immunostaining of neuronal TyrRS, RSV alone or in combination with Aβ; type: cell-based; details: 16 hours; for TyrRS protein levels: alone, 50μ; for Aβ-mediated downregulation of TyrRS: co-treatment 50μ with Aβ 50 nM
# T1 construct: Primary cortical neuron cultures were obtained from E18 Sprague Dawley rats' cortices; endogenous in cells; host or cells: rat primary cortical neurons (E18 Sprague Dawley)
# T1 sequence (Q4KM49 1-528): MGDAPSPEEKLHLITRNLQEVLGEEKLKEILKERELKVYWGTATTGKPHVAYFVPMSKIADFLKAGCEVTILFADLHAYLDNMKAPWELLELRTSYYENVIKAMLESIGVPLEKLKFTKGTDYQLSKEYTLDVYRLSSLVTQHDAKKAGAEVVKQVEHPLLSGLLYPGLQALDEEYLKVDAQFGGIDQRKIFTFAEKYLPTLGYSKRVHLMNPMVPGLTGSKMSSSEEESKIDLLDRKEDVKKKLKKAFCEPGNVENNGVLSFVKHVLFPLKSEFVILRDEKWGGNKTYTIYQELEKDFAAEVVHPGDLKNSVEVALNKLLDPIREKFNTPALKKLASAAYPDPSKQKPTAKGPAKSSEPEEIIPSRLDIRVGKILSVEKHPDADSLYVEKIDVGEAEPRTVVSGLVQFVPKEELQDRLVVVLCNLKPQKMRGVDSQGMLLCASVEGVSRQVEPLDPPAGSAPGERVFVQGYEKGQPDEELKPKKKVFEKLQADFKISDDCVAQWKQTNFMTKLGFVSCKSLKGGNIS
# PARP1 [5] = experiment: Immunoblot of chromatin fraction for PARP1 and PAR; type: cell-based, rat; details: 50 μM, 1 hour
# tau = experiment: Immunostaining of phospho-tau (pSer404-tau); type: cell-based, rat; details: 25 μM, 16 hours
# TyrRS [6] = experiment: Immunostaining of neuronal TyrRS under neurotoxic agents (NMDA, MPP+); type: cell-based, rat; details: 50 μM in combination with 50 μM NMDA or 100 μM MPP+, 4 hours
# H3 = experiment: Immunoblot for histone H3 acetylation (Ac-K9-H3, Ac-K56-H3); type: cell-based, rat; details: 15 minutes
# Ac-K56-H3 = details: diabetes patients, 500 mg/day; cited from earlier work
SMILES,"protection against MPP+ toxicity (cell viability) (Rat cortical neurons [1]; 10 μM MPP, pre-treatment 50 μM for 16 hours, viability after 48 hours)",auto-PARylation of PARP1 (PARP1 [2]; cis-RSV),trans-RSV-mediated neurotoxicity (Rat cortical neurons [3]),XRCC1 protein levels (XRCC1),ligase IV protein levels (Ligase IV),GSK3β activity via inhibitory phosphorylation (pSer9) (GSK3β),TyrRS protein levels (TyrRS [4]),Aβ-mediated downregulation of TyrRS (TyrRS [4]),PARP1 and PAR in the chromatin fraction (PARP1 [5]),"phosphorylation level of tau (p-tau, pSer404) (tau)",neurotoxicity-mediated downregulation of neuronal TyrRS (TyrRS [6]),acetylation level of H3 lysine 9 (Ac-K9-H3) (H3),"neurotoxicity by itself (Rat cortical neurons [1]; high dose 50 μM, no toxin)",auto-PARylation of PARP1 (PARP1 [2]; higher dose ≥25 μM),auto-PARylation of PARP1 (PARP1 [2]; low dose 5 μM),levels of Ac-K56-H3 in PBMC (Ac-K56-H3),acetylation level of H3 lysine 56 (Ac-K56-H3) (H3)
"Oc1ccc(/C=C\c2cc(O)cc(O)c2)cc1 [cis-RSV, cis-resveratrol]",protects against MPP toxicity,stimulated the auto-PARylation of PARP1,rescued trans-RSV-mediated neurotoxicity,upregulated them,upregulated them,inhibited GSK3β through the upregulation of the inhibitory phosphorylation (pSer9),upregulation of the TyrRS protein levels,protected against Aβ-mediated downregulation of TyrRS,downregulated PARP1 (170 kDa) and PAR modification in the chromatin fraction,significantly downregulated the phosphorylation level of tau (p-tau),protected against the downregulation of neuronal TyrRS,upregulated the acetylation levels of H3 lysine 9 (Ac-K9-H3),,,,,
"Oc1ccc(/C=C/c2cc(O)cc(O)c2)cc1 [trans-RSV, trans-resveratrol]",,,,downregulated the protein levels,downregulated the protein levels,activated GSK3β by downregulating the levels of pSer9,downregulation,exacerbated the downregulation of TyrRS,enhanced the association (‘trapping’) of PARP1 with chromatin,significantly upregulated the level of p-tau,exacerbated the downregulation,downregulated the lysine 9 and 56 acetylation levels of H3,neurotoxic,downregulated the auto-PARylation of PARP1,stimulated the auto-PARylation of PARP1,decreased levels of Ac-K56-H3,downregulated the lysine 9 and 56 acetylation levels of H3
